Data published in article PMC12024264, “Frog Skin Peptides Hylin-a1, AR-23, and RV-23: Promising Tools Against Carbapenem-Resistant Escherichia coli and Klebsiella pneumoniae Infections” (Antibiotics, 2025).
Where no end group is shown, it is not given here.

Assays:
E. coli 1376 = settings: carbapenemase NDM (class B), rectal swab, N/D = no antibacterial activity detected; for MIC: microdilution, 37 °C, 20 h
Description: (§1) Each strain was grown in Mueller Hinton Broth (MH Broth), and 5 × 10^5 CFU/mL was used to evaluate antibacterial activity. Clinical carbapenem-resistant K. pneumoniae and E. coli isolates were collected at the AOU of Virology and Microbiology of the University of Campania “Luigi Vanvitelli”.
(§2) The antimicrobial activity of Hylin-a1, AR-23, and RV-23 was investigated using a microdilution assay as reported by the National Committee on Clinical Laboratory Standards (NCCLS) guidelines against a broad spectrum of Gram-negative bacteria. […] In 96-well, the standardized bacterial inoculum (5 × 10^5 colony forming units, CFU/mL) was inoculated together with AMPs and incubated at 37 °C for 20 h. After the time of incubation, optical density (OD) was measured at TECAN, and data were expressed as a percentage of inhibition. In addition to assessing the MIC values, the bactericidal effect was also studied as reported elsewhere.

E. coli 2267 = settings: carbapenemase NDM (class B), rectal swab, N/D = no antibacterial activity detected; for MIC: microdilution, 37 °C, 20 h
Description: as §1, §2

E. coli 3140 = settings: carbapenemase OXA-48 (class D), urine; microdilution, 37 °C, 20 h; N/D = no antibacterial activity detected
Description: as §1, §2

E. coli 716 = settings: carbapenemases IMP1, VIM, NDM (class B), urine, N/D = no antibacterial activity detected; for MIC: microdilution, 37 °C, 20 h
Description: as §1, §2

K. pneumoniae 1711 = settings: carbapenemase KPC (class A), rectal swab, N/D = no antibacterial activity detected; for MIC: microdilution, 37 °C, 20 h
Description: as §1, §2

K. pneumoniae 1745 = settings: carbapenemase KPC (class A), ulcer, N/D = no antibacterial activity detected; for MIC: microdilution, 37 °C, 20 h
Description: as §1, §2

K. pneumoniae ATCC 10031 = experiment: Time-kill assay; type: cell-based, Klebsiella pneumoniae
Description: (§3) This in vitro method allows for assessing the kinetics of bacterial killing by peptides over time. […] Specifically, at each time point, 50 μL aliquots of the bacterial–peptide mixtures were collected and plated on agar (see Materials and Methods for further details). Following incubation, colony-forming units (CFUs) were counted and the killing rate of each peptide concentration was calculated (Figure 2).
(§4) Figure 2 Evaluation of the kinetic-killing effect of Hylin-a1, AR-23, and RV-23 against K. pneumoniae and E. coli. […] Untreated bacteria was used as control negative (CTR- in black).
(§5) Using the same conditions as the MIC assay, a time–kill test was performed to monitor bacterial growth over time. […] Finally, bacterial colonies were counted, and the CFU/mL was calculated.

E. coli ATCC 25992 = experiment: Time-kill assay; type: cell-based, Escherichia coli
Description: as §3, §4, §5

K. pneumoniae 311 = settings: carbapenemase OXA-48 (class D), rectal swab, N/D = no antibacterial activity detected
Description: as §1, §2

E. coli = settings: against E. coli; ref 63 (Zhang et al.); cited from earlier work
Source text: The activity of AR-23 and RV-23 against Gram-negative bacteria has been briefly described in previous studies. Zhang et al. evaluated the antibacterial effects of both peptides against E. coli. […] The authors attributed this enhanced activity to RV-23’s lower hydrophobicity and higher hydrophobic moment, factors strongly associated with reduced cytotoxicity and greater selectivity compared to AR-23. In contrast, the antibacteri ...

K. pneumoniae = experiment: Checkerboard assay with meropenem; settings: checkerboard, 20 h, OD600

Substance | MIC (E. coli 1376) | MBC (E. coli 2267) | MIC (E. coli 2267) | MIC (E. coli 3140) | MIC (E. coli 716) | MBC (K. pneumoniae 1711) | MIC (K. pneumoniae 1711) | MBC (K. pneumoniae 1745) | MIC (K. pneumoniae 1745) | bacterial killing in time-kill assay (K. pneumoniae ATCC 10031) | bacterial killing in time-kill assay (E. coli ATCC 25992) | MBC (E. coli 1376) | MBC (E. coli 716) | MBC (K. pneumoniae 311) | MIC (K. pneumoniae 311; microdilution, 37 °C, 20 h) | time to significant reduction in bacterial viability / bactericidal effect (K. pneumoniae ATCC 10031) | time to significant reduction in bacterial viability / bactericidal effect (E. coli ATCC 25992) | MIC (E. coli) | MIC of peptide in combination with meropenem (K. pneumoniae)
IFGAILPLALGALKNLIK-NH2 [Hylin-a1] | 25 µM | 50 µM | 25 µM | 50 µM | 25 µM | 50 µM | 25 µM | 50 µM | 50 µM | kills bacteria | kills bacteria | – | – | – | – | – | – | – | –
RIGVLLARLPKLFSLFKLMGKKV-NH2 [RV-23] | 6.25 µM | 12.5 µM | 12.5 µM | 25 µM | 25 µM | 12.5 µM | 12.5 µM | 25 µM | 12.5 µM | – | – | 6.25 µM | 25 µM | 50 µM | 50 µM | ≤ 2 h | ≤ 2 h | 3.33 µM | 3.125 µM
